# Measured values published in patent publication US20220267394A1, “COMPOUNDS FOR INDUCING TISSUE FORMATION AND USES THEREOF” (HISTIDE AG, priority 2015, published 2022).
# Where no end group is shown, it is not given here.
# Tested on: hMSCs
# Experiment: Loss of stemness: STRO-1 expression by immunostaining
# Type: cell-based, human
# Procedure: The cells were first fixed for 20 min with 4% paraformaldehyde/PBS at 4° C. After fixation, the cells were permeabilized in PBS containing 1% Triton X-100 for 15 min. Runx2, Osterix, Stro-1, Vinculin, Phalloidin, Osteopontin, Sox2, Sox9 antibodies were visualized by treating the cells with 1% (v/v) specific monoclonal antibodies for 1 hour at 37° C. Then the samples were incubated with Alexa Fluor® 568 or 647 (F(ab′)2 fragment of IgG(H+L)) during 30 min at room temperature. The cell nuclei were counterstained in 20 ng/mL DAPI for 10 min at room temperature.
# For this type of quantification the freeware image analysis ImageJ® software was used. The raw image was first converted to an 8-bit file, and then the unsharp mask feature was used (settings 1:0.2) to remove the image background (rolling ball radius 10). After smoothing, the resulting image, which appears similar to the original photomicrograph but with minimal background, was then converted to a binary image by setting a threshold. Threshold values were determined empirically by selecting a setting, which gave the most accurate binary image for a subset of randomly selected photomicrographs. The cell area was determined by manual delineation on raw fluorescent images. Total contact area and mean contact area per cell were calculated by “analyse particules” in ImageJ®. A minimum of 30 cells per condition were analyzed. Stro-1, CD-34+, and CD-105 expressions were determined using this procedure.
# hMSCs were cultured on conventional cell culture plastic plates with or without the presence in the cell culture media of different GFR-binding compounds as described herein (SEQ ID NO: 50 to 88) in solution. […] This was probed by Stro-1 immunostaining after cell fixation as described in the Methods section. The quantification of Stro-1 positive contact numbers and areas was performed as described in the Methods section. A minimum of 30 cells per condition were analyzed. Stro-1 positive marrow cells are multipotential and capable of differentiating into multiple mesenchymal lineages including stromal cells with a phenotype resembling vascular smooth muscle cells that can support hematopoiesis, adipocytes, osteoblasts, and chondrocytes.
# Using the method detailed in the description, the RMSD of 57 previously reported peptide sequences have been determined (Table 6) and correlated with the expression of STRO-1 in solution. […] One should note that it is commonly admitted that the expression of STRO-1 in a cell is indicative of a cell that is in a substantially non-differentiated state and the decrease of its expression of at least about 20% is indicative of a cell that has started a process of differentiation but which may not result in the differentiation of the cell. A decrease of more than 50% would be indicative of the presence of a significant shift towards a differentiated state. A decrease of more than 70% would be indicative of the presence of a very important shift towards a differentiated state. A sustained decrease (e.g. for at least 96 h) of more than 50% or 70% would be indicative of the presence of an even more important shift towards a differentiated state.
# Likewise, using the method detailed in the description, the RMSD of 75 GFR-binding peptide sequence representatives of the invention have been determined (Table 8) and correlated with the expression of STRO-1. SEQ ID NO: 1 to 49 were tested in combination with a bioactive carrier as defined above in the Examples Section (i.e. titanium, ceramics, collagen, etc. . . . ), whereas SEQ ID NO: 2242 to 2267 were tested in solution.
# [1] = Table 6, previously reported peptides in solution, 400 ng/mL
# [2] = Table 8, SEQ ID NO: 1 to 49 tested in combination with a bioactive carrier (titanium, ceramics, collagen, etc.)
# [3] = Table 8, SEQ ID NO: 2242 to 2267 tested in solution
substance,measurement,setting,value
2160 (PIIYYVGRNVRVEQLSNMVVRRA; Comparative sequence) [compound 2160],STRO-1 expression (%),[1],98%
2212 (CCAPTQLSAISVLYFDDSSNVILKKYRNMVVRACGCR; Comparative sequence) [compound 2212],STRO-1 expression (%),[1],82%
"47 (CAAAPASXXVPARLSPISILYIAAAYKQYEDM; GFR-binding peptide; MOD_RES (8), (9): Xaa is C or S) [compound 47]",STRO-1 expression (%),[2],18%
2245 (APTLLNAISMLYFNDKQQIILKKYRLLVVR; GFR-binding peptide) [compound 2245],STRO-1 expression (%),[3],22%
"2179 (TLXPIVSSXNPSPISFRXIKILLHDLEVVPFPKSRVR; Peptide reported in US20040031072, SEQ ID NO:272830; MOD_RES (3), (9), (18): Xaa is A) [compound 2179]",STRO-1 expression (%),[1],84%
2243 (VPEAASSLSMLFFEIVRKKPIFLKVYPAATVE; GFR-binding peptide) [compound 2243],STRO-1 expression (%),[3],19%
"2176 (MQCRELVTQVTEEPISQTEDGEEQESTTTPRLKGQKKE; Peptide reported in US20070083334, SEQ ID NO:958173) [compound 2176]",STRO-1 expression (%),[1],85%
2252 (VPQAAEPLPMLYYDKGVVTYEQLSNAAVRS; GFR-binding peptide) [compound 2252],STRO-1 expression (%),[3],19%
"2207 (CKIPKPSSAPTELSAISMLYL; Peptide reported in WO2009151288, SEQ ID NO:1) [compound 2207]",STRO-1 expression (%),[1],78%
"2178 (SPISILVVPELDASLPEKRPSLDGFEALLVYNAPKA; Peptide reported in US20120246748, SEQ ID NO:119912) [compound 2178]",STRO-1 expression (%),[1],82%
"2162 (ENVNLKKYRNMIVKSCGCH; Peptide reported in US20040039543, SEQ ID NO:107) [compound 2162]",STRO-1 expression (%),[1],97%
2257 (VPTGGEPLTTLYYNDKQQIIEQLSNGGEHS; GFR-binding peptide) [compound 2257],STRO-1 expression (%),[3],26%
"2167 (LNEVLRFCGIQVPEGDEPLTY; Peptide reported in WO2013040142, SEQ ID NO:89702) [compound 2167]",STRO-1 expression (%),[1],99%
"2173 (TKPLSSLLFPNWNTTTTPTPPRP; Peptide reported in WO2013040142, SEQ ID NO:866827) [compound 2173]",STRO-1 expression (%),[1],91%
38 (CVPTEERSVKVAKVRIKPHQGQHKEVQV; GFR-binding peptide) [compound 38],STRO-1 expression (%),[2],23%
2262 (HVTKPTSVPTKLSPISILFIDDSSNVIYKQYENMVVESSGSH; GFR-binding peptide) [compound 2262],STRO-1 expression (%),[3],18%
26 (GTPGPASSAVSQELSAISMLYLGGGLKNYQDM; GFR-binding peptide) [compound 26],STRO-1 expression (%),[2],22%
"2188 (SSVPAVCSATSATGPYSSGSVEVTFDVYATTVY; Peptide reported in EP1687419, SEQ ID NO:45) [compound 2188]",STRO-1 expression (%),[1],92%
21 (CGGGSSVPTELSAISTLYLDDYDKVILKKYRNM; GFR-binding peptide) [compound 21],STRO-1 expression (%),[2],14%
"2200 (FDSRVLKSAISFKENIIF; Peptide reported in WO2013040142, SEQ ID NO:2935795) [compound 2200]",STRO-1 expression (%),[1],89%
20 (CKVGKASSVPTKLNAISTLYLDDSSNVILKNYQ; not fully specified; ends and bridges not checked) [compound 20],STRO-1 expression (%),[2],18%
"2199 (APTQLSAISVL; Peptide reported in US20050250936, SEQ ID NO:71) [compound 2199]",STRO-1 expression (%),[1],93%
"2184 (SATSRLALSDVPAELAA; Peptide reported in WO2013040142, SEQ ID NO:729730) [compound 2184]",STRO-1 expression (%),[1],98%
48 (CVPQRLSPISILYIDAANNVVYKQYE; GFR-binding peptide) [compound 48],STRO-1 expression (%),[2],18%
"2214 (KPCCAPTELSAISVLYFDDSSNVILKKYRNMVVRACGCR; Peptide reported in US20050250936, SEQ ID NO:122) [compound 2214]",STRO-1 expression (%),[1],83%
"2191 (ANINKDRDNVPAATSSLSKAYNP; Peptide reported in WO2013040142, SEQ ID NO:2326359) [compound 2191]",STRO-1 expression (%),[1],92%
2267 (ASASPSSVSQDLRSVKVAKVIGKTPKIKEVQVMIVKSSKSS; GFR-binding peptide) [compound 2267],STRO-1 expression (%),[3],34%
25 (GTPGPAPTQLSPISVLYKDDSSNVILKYHY; GFR-binding peptide) [compound 25],STRO-1 expression (%),[2],23%
11 (CPKPSSAPTQLNAISMLYFGGGGGGGLKKYRNMVVRA; GFR-binding peptide) [compound 11],STRO-1 expression (%),[2],31%
"5 (CASASPXXVSQDLNAISVLYFIGKTPKILKKYRMIVKSXKXS; GFR-binding peptide; MOD_RES (7), (8), (39), (41): Xaa is C or S) [compound 5]",STRO-1 expression (%),[2],26%
"2186 (SVPAVCSATSATGPYSSVTVTSWPSIVATGGTT; Peptide reported in EP1687419, SEQ ID NO:42) [compound 2186]",STRO-1 expression (%),[1],92%
2251 (APVAAKPLSMLYVDKGVVTYDHHKDAAVEE; GFR-binding peptide) [compound 2251],STRO-1 expression (%),[3],22%
2247 (VPTSSSPISTLYIDKGVVTYLKYHYSSVAE; GFR-binding peptide) [compound 2247],STRO-1 expression (%),[3],20%
"2175 (VGAAWWLREQGSPINTLAVPA; Peptide reported in WO2013040142, SEQ ID NO:133294) [compound 2175]",STRO-1 expression (%),[1],88%
"2204 (KIPKPSSAPTELSAISMLC; Peptide reported in WO2009151288, SEQ ID NO:6) [compound 2204]",STRO-1 expression (%),[1],82%
2264 (KIPKASSVPQELEPLPIVYYDENEKVVEQLSNDMVRSGSGSR; GFR-binding peptide) [compound 2264],STRO-1 expression (%),[3],24%
34 (GTPGPRNVQCRPTQVQLSAISTLYLEIVRKKPLKNYQTLEDH; GFR-binding peptide) [compound 34],STRO-1 expression (%),[2],18%
"49 (CTVPKPXXAPTQLSPISILYIDAANNVVYKQYEDMVVRA; GFR-binding peptide; MOD_RES (7), (8): Xaa is C or S) [compound 49]",STRO-1 expression (%),[2],18%
